# Experimental data published in patent publication US9969695B2, “N-substituted imidazole carboxylic ester chiral compound containing an ether side chain, its preparation and application” (WEST CHINA HOSPITAL, SICHUAN UNIVERSITY, priority 2013, dated 2018).
# Read-outs that look alike come from different tables or passages of the source.
# Legend:
# Male SD rats [1] = assay: ED50 by the sequential method, extinction of rat body-righting reflex; type: in vivo; details: Rattus norvegicus, etomidate as Etomidate-Lipuro, extinction of body-righting reflex ≥30 s, read-out: 50% effective dose (ED50)
# Description: (§1) Male SD rats (250˜300 g) were used as an experimental animal, and 50% effective dose (ED50) was determined by the sequential method. Three compounds were dissolved in a solvent of DMSO, and etomidate was used as the commercially-available formulation (B BRAUN, Etomidate-Lipuro®, 20 mg/10 mL). Based on the initial dose of 1 mg/kg, other dosages were adjusted as the ratio of 0.8, and the ED50 values of the three compounds and etomidate were determined. Extinction time ≥30 s for the rat body-righting reflex was the positive marker while no disappearance of the righting reflex was considered invalid. Based on the experimental results, four cross-points were formed, and the ED50 values were calculated. […] Then, the respective 2ED50 values of the three compounds and etomidate were taken in an equivalent dose, which were administered via the rat tail vein. The preliminary effects were evaluated in the four rat groups, which were given the three compounds of Formulas (I), (IV), (V) and etomidate, respectively, with 10 rats in each group. […] The last time of the Formula (I) compound and etomidate was 5-6 min, but the last time of the Formulas (IV) and (V) compounds was 10-20 min. […] DMSO had no pharmacological effects, and no adverse effects were observed. The onset time, the last time, and the adverse effects (types, incidence rates) induced by the three compounds and etomidate are shown in the following table:
# (§2) Male SD rats (250˜300 g) were used as an experimental animal, and 50% effective dose (ED50) was determined by the sequential method. Hydrochlorides of the three compounds were dissolved in the solvent of normal saline, and etomidate was used as the commercially-available formulation (B BRAUN, Etomidate-Lipuro®, 20 mg/10 mL). The initial dose was 1 mg/kg, and the ratio of dosage variation was 0.8, which was applied in the determination of ED50 values of Formula (I) hydrochloride, Formula (I) hydrobromide, Formula (I) trifluoroacetate, and etomidate. Extinction time (≥30 s) of the rat body-righting reflex was the positive marker while no disappearance of the reflex was considered invalid. Based on the experimental results, four cross-points were formed, and then ED50 values were calculated. […] Then, the respective 2ED50 values of the three compounds and etomidate were taken in an equivalent dose, which were administered via the rat tail vein. The preliminary effects were evaluated in the four rat groups, which were given the three compounds of Formulas (I) hydrochloride, Formula (I) hydrobromide, Formula (I) trifluoroacetate, and etomidate, respectively, with 10 rats in each group. […] Palinesthesia time was in arrange of 5-10 min. During the test period, no significant difference was found in the types and the incidence rates of adverse effects in each group. DMSO had no pharmacological effects, and no adverse effect was found. The onset time, the last time, and the types and the incidence rates of adverse effects induced by the three salt compounds and etomidate are shown in the following table: […]
# Male SD rats [2] = assay: Onset time, last time, palinesthesia time and adverse effects at 2ED50 via the rat tail vein; type: in vivo; details: for Incidence of adverse effect: Muscle tremor / Onset time: 10 rats per group; for Last time: disappearance to recovery of body-righting reflex
# Description: as §1, §2
# [3] = system: self-synthesis of adrenocortical hormone; assay: Increase degree of cortical hormone (cortisol, corticosterone) in blood serum after ACTH stimulation, ELISA; type: in vivo; details: Beagle dogs; for Increase degree of corticosterone / Increase degree of cortisol: 2ED50, dexamethasone baseline, 1 h after ACTH
# Description: Male Beagle dogs (10±2 kg) were selected as an experimental animal. After administration, the contents of corticosterone and cortisol in the blood serum of the Beagle dogs were determined by the ELISA kit and the enzyme-labelled instrument. The 20 Beagle dogs were divided into five groups, with four dogs in each group. After respective administration of dexamethasone (0.01 mg/kg), the level of adrenal cortex in the dog body was lowered to the baseline, and those levels of corticosterone and cortisol at this time were used as the base value (baseline). […] After 10 min, ACTH (adrenocortical hormone) was given to stimulate and cause an increased level of cortex in the dog body. One hour after administration of ACTH, both corticosterone and cortisol levels in the blood serum of the Beagle dogs were determined, and the ratio of the peak value to the base value of the cortex levels was calculated. This ratio indicated the increase degree of the cortical hormone. A greater degree indicated a less inhibitory effect of the medicine on the cortical hormone. After administration, compounds of Formulas (I), (IV) and (V), DMSO, and the increase degree of the cortical hormone followed by stimulation of ACTH are shown in the following table:
# Male Beagle dogs (10±2 kg) were selected as an experimental animal. After administration, the contents of corticosterone and cortisol in the blood serum of the Beagle dogs were determined by the ELISA kit and the enzyme-labelled instrument. The 20 Beagle dogs were divided into five groups, with four dogs in each group. After respective administration of dexamethasone (0.01 mg/kg), the level of adrenal cortex in the dog body was lowered to the baseline, and the levels of corticosterone and cortisol at this time were used as the baseline. Then, the equivalent doses (2ED50) of the compounds of Formula (I) hydrochloride (3.62 mg/kg), hydrobromide (3.86 mg/kg), trifluoroacetate (4.66 mg/kg), the positive control medicine Etomidate-Lipuro® (0.9 mg/kg), and the equal-volume of solvent DMSO were respectively administrated into the dogs of the five groups. After 10 min, ACTH was given to stimulate and cause the cortex levels increase in the dog body. One hour after administration of ACTH, both the cortical hormone levels were determined, and the ratio of the peak value to the baseline of cortex levels was calculated. This ratio indicated the increase degree of the cortical hormone. A greater degree of increase indicated a less inhibitory effect of the medicine on the cortical hormone. After administrations, the three salts of the Formula (I) compound, DMSO, the increase degree of the cortical hormone followed by stimulation of ACTH are shown in the following table: […]
# [4] = after one intravenous bolus of etomidate 3 mg/kg, cited from earlier work
# 11β-hydroxylase = 11β-hydroxylase versus GABAA; cited from earlier work
# [5] = Example 9, 2ED50 via tail vein, listed as etomidate
# [6] = Example 10, ratio of peak value to base value
# [7] = Example 11, ratio of peak value to baseline
compound,measurement,setting,value
"CCOC(=O)c1cncn1[C@H](C)c1ccccc1 [Etomidate, reference compound]",ED50,"Male SD rats [1]; Example 8, compounds in DMSO",1.14 mg/kg
same,ED50,"Male SD rats [1]; Example 9, salts in normal saline",1.06 mg/kg
same,sedative-hypnotic and general anesthetic effects (conclusion in words),Male SD rats [2]; Example 8,good sedative-hypnotic and general anesthetic effects
same,Incidence of adverse effect: Muscle tremor,"Male SD rats [2]; Example 8, 2ED50 via tail vein",70%
same,Onset time,"Male SD rats [2]; Example 8, 2ED50 via tail vein",Immediate
same,Onset time,"Male SD rats [2]; Example 8, 2ED50 via tail vein, listed as etomidate",immediate action
same,Last time,"Male SD rats [2]; Example 8, 2ED50 via tail vein",6.1 ± 1.3 min
same,Palinesthesia tune,"Male SD rats [2]; Example 8, 2ED50 via tail vein, recovery to full recovery of body-righting reflex",4.5 ± 1.2 min
same,sedative-hypnotic and general anesthetic effects (conclusion in words),Male SD rats [2]; Example 9,good sedative-hypnotic and general anesthetic effects
same,Incidence of adverse effect: Muscle tremor,"Male SD rats [2]; Example 9, 2ED50 via tail vein",60%
same,Onset time,"Male SD rats [2]; Example 9, 2ED50 via tail vein",Immediate
same,Onset time,Male SD rats [2]; [5],immediate action
same,Last time,"Male SD rats [2]; Example 9, 2ED50 via tail vein",5.9 ± 1.5 min
same,Last time,Male SD rats [2]; [5],4 to 8 min
same,Palinesthesia time,"Male SD rats [2]; Example 9, 2ED50 via tail vein, recovery to full recovery of body-righting reflex",5.1 ± 1.3 min
same,Increase degree of corticosterone,[3]; [6],2.53 ± 0.65
same,Increase degree of cortisol,[3]; [6],2.12 ± 0.56
same,inhibition on cortical hormone (conclusion in words),"[3]; Example 10, after stimulation by ACTH",significantly inhibit the self-synthesis of adrenocortical hormone
same,cortical hormone increase after stimulation by ACTH (conclusion in words),[3]; Example 11,significantly suppress the self-synthesis of adrenocortical hormone
same,Increase degree of corticosterone,[3]; [7],2.80 ± 0.76
same,Increase degree of cortisol,[3]; [7],2.46 ± 0.87
same,time for the plasma medicine concentration maintaining,[4],8 min
same,time of plasma medicine concentration maintaining above 8 ng/mL,[4],up to 8 h
same,minimal effective concentration for inhibition of cortical hormone synthesis,[4]; plasma,8 ng/mL
same,minimal effective concentration of anesthetic effect,[4]; plasma,110 ng/mL
same,ability of binding to 11β-hydroxylase relative to binding to GABAA acceptor,11β-hydroxylase,100 times
